Laboratory results published in PubChem BioAssay (NCI).
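Test compounds were applied to cells in 96-well plates for 48 hours at 5 doses. GI50 marks 50% less growth. TGI marks complete inhibition of growth.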

Legend:
Assay in all cases: NCI-60 cell line screen, 48 h
[1] = tested on: NCI/ADR-RES ovarian
[2] = tested on: U251 CNS
[3] = tested on: SR leukemia
[4] = tested on: 786-0 renal
[5] = tested on: NCI-H226 lung
[6] = tested on: HCT-15 colon
[7] = tested on: OVCAR-4 ovarian
[8] = tested on: COLO 205 colon
[9] = tested on: SN12C renal
[10] = tested on: HCT-116 colon
[11] = tested on: UO-31 renal
[12] = tested on: UACC-62 melanoma
[13] = tested on: K-562 leukemia
[14] = tested on: HT29 colon
[15] = tested on: PC-3 prostate
[16] = tested on: T-47D breast
[17] = tested on: NCI-H460 lung
[18] = tested on: MALME-3M melanoma
[19] = tested on: NCI-H522 lung
[20] = tested on: CAKI-1 renal
[21] = tested on: SF-268 CNS
[22] = tested on: BT-549 breast
[23] = tested on: SNB-19 CNS
[24] = tested on: UACC-257 melanoma
[25] = tested on: KM12 colon
[26] = tested on: SK-MEL-2 melanoma
[27] = tested on: SK-MEL-28 melanoma
[28] = tested on: SK-MEL-5 melanoma
[29] = tested on: A549 NSCLC
[30] = tested on: SF-295 CNS
[31] = tested on: IGROV1 ovarian
[32] = tested on: SK-OV-3 ovarian
[33] = tested on: TK-10 renal
[34] = tested on: LOX IMVI melanoma
[35] = tested on: SW-620 colon
[36] = tested on: SNB-75 CNS
[37] = tested on: ACHN renal
[38] = tested on: OVCAR-5 ovarian
[39] = tested on: CCRF-CEM leukemia
[40] = tested on: NCI-H23 lung
[41] = tested on: MDA-MB-231 breast
[42] = tested on: HS 578T breast
[43] = tested on: OVCAR-8 ovarian
[44] = tested on: EKVX NSCLC
[45] = tested on: HL-60(TB) leukemia
[46] = tested on: MOLT-4 leukemia
[47] = tested on: MDA-MB-435
[48] = tested on: DU-145 prostate
[49] = tested on: RXF 393 renal
[50] = tested on: HOP-62 NSCLC
[51] = tested on: HCC-2998 colon
[52] = tested on: OVCAR-3 ovarian
[53] = tested on: SF-539 CNS
[54] = tested on: MCF7 breast
[55] = tested on: A498 renal
[56] = tested on: M14 melanoma
[57] = tested on: RPMI-8226 leukemia
[58] = tested on: HOP-92 NSCLC

CC(C)(C)NC(C1=CC(C)(C)c2ccccc2C1=O)c1ccccc1 (stereo not given) showed a GI50 [1] of 2.45 µM, a TGI [1] of 6.29 µM and a GI50 [2] of 1.54 µM. It also gave a TGI [2] of 2.87 µM, a GI50 [3] of 0.293 µM and a TGI [3] of 1.74 µM. It also gave a GI50 [4] of 1.75 µM, a TGI [4] of 3.13 µM and a GI50 [5] of 1.42 µM. It also gave a TGI [5] of 3.17 µM, a GI50 [6] of 1.29 µM and a TGI [6] of 2.68 µM. It also gave a GI50 [7] of 1.51 µM, a TGI [7] of 5.93 µM and a GI50 [8] of 1.35 µM. For the same compound, the TGI [8] was 2.63 µM, the GI50 [9] was 1.61 µM and the TGI [9] was 3.57 µM. The GI50 [10] was 1.35 µM, the TGI [10] was 2.64 µM and the GI50 [11] was 1.18 µM. For the same compound, the TGI [11] was 2.45 µM, the GI50 [12] was 1.3 µM and the TGI [12] was 2.82 µM. The GI50 [13] was 1.67 µM, the TGI [13] was 3.86 µM and the GI50 [14] was 1.54 µM. The TGI [14] was 2.88 µM, the GI50 [15] was 1.63 µM and the TGI [15] was 3.42 µM. For the same compound, the GI50 [16] was 1.12 µM, the TGI [16] was 2.55 µM and the GI50 [17] was 1.93 µM. The TGI [17] was 4.58 µM, the GI50 [18] was 1.34 µM and the TGI [18] was 2.97 µM. For the same compound, the GI50 [19] was 1.1 µM, the TGI [19] was 2.41 µM and the GI50 [20] was 3.26 µM. The TGI [20] was 13.4 µM, the GI50 [21] was 1.38 µM and the TGI [21] was 2.74 µM. The GI50 [22] was 1.61 µM, the TGI [22] was 4.92 µM and the GI50 [23] was 3.36 µM. The TGI [23] was 14.2 µM, the GI50 [24] was 1.42 µM and the TGI [24] was 2.94 µM. For the same compound, the GI50 [25] was 1.42 µM, the TGI [25] was 2.73 µM and the GI50 [26] was 1.49 µM. It also gave a TGI [26] of 3.08 µM, a GI50 [27] of 1.6 µM and a TGI [27] of 2.95 µM. The GI50 [28] was 1.52 µM, the TGI [28] was 2.84 µM and the GI50 [29] was 2.16 µM. It also gave a TGI [29] of 5.25 µM, a GI50 [30] of 5.07 µM and a TGI [30] of 17.8 µM. The GI50 [31] was 1.52 µM, the TGI [31] was 4.87 µM and the GI50 [32] was 3.04 µM. The TGI [32] was 12.1 µM, the GI50 [33] was 1.75 µM and the TGI [33] was 3.39 µM. It also gave a GI50 [34] of 1.42 µM, a TGI [34] of 2.73 µM and a GI50 [35] of 1.53 µM. The TGI [35] was 2.92 µM, the GI50 [36] was 1.02 µM and the TGI [36] was 2.57 µM. The GI50 [37] was 1.49 µM, the TGI [37] was 2.82 µM and the GI50 [38] was 1.82 µM. For the same compound, the TGI [38] was 3.78 µM, the GI50 [39] was 1.14 µM and the TGI [39] was 4.07 µM. It also gave a GI50 [40] of 1.49 µM, a TGI [40] of 3.17 µM and a GI50 [41] of 1.58 µM. It also gave a TGI [41] of 3.45 µM, a GI50 [42] of 1.43 µM and a TGI [42] of 6.08 µM. For the same compound, the GI50 [43] was 1.74 µM, the TGI [43] was 4.19 µM and the GI50 [44] was 1.67 µM. The TGI [44] was 4.61 µM, the GI50 [45] was 0.868 µM and the TGI [45] was 2.9 µM. It also gave a GI50 [46] of 1.48 µM, a TGI [46] of 4.6 µM and a GI50 [47] of 1.98 µM. For the same compound, the TGI [47] was 5.4 µM, the GI50 [48] was 1.55 µM and the TGI [48] was 3.24 µM. It also gave a GI50 [49] of 1.22 µM, a TGI [49] of 2.53 µM and a GI50 [50] of 2.16 µM. The TGI [50] was 4.84 µM, the GI50 [51] was 1.66 µM and the TGI [51] was 3.1 µM. The GI50 [52] was 1.31 µM, the TGI [52] was 2.58 µM and the GI50 [53] was 1.66 µM. For the same compound, the TGI [53] was 3.02 µM, the GI50 [54] was 1.32 µM and the TGI [54] was 2.59 µM. It also gave a GI50 [55] of 1.87 µM, a TGI [55] of 6.37 µM and a GI50 [56] of 1.52 µM. The TGI [56] was 2.85 µM.

COc1ccc2c(c1)c(-c1ccc(-c3cn(S(=O)(=O)c4ccccc4)c4ccc(OC)cc34)s1)cn2S(=O)(=O)c1ccccc1 was tested, and the GI50 [1] was greater than 100 µM, the TGI [1] was greater than 100 µM and the GI50 [2] was greater than 100 µM. The TGI [2] was greater than 100 µM, the GI50 [3] was greater than 100 µM and the TGI [3] was greater than 100 µM. For the same compound, the GI50 [4] was greater than 100 µM, the TGI [4] was greater than 100 µM and the GI50 [5] was greater than 100 µM. It also gave a TGI [5] greater than 100 µM, a GI50 [6] greater than 100 µM and a TGI [6] greater than 100 µM. The GI50 [7] was greater than 100 µM, the TGI [7] was greater than 100 µM and the GI50 [8] was greater than 100 µM. It also gave a TGI [8] greater than 100 µM, a GI50 [9] greater than 100 µM and a TGI [9] greater than 100 µM. The GI50 [10] was greater than 100 µM, the TGI [10] was greater than 100 µM and the GI50 [11] was greater than 100 µM. It also gave a TGI [11] greater than 100 µM, a GI50 [12] greater than 100 µM and a TGI [12] greater than 100 µM. For the same compound, the GI50 [13] was greater than 100 µM, the TGI [13] was greater than 100 µM and the GI50 [14] was greater than 100 µM. It also gave a TGI [14] greater than 100 µM, a GI50 [15] greater than 100 µM and a TGI [15] greater than 100 µM. It also gave a GI50 [16] greater than 100 µM, a TGI [16] greater than 100 µM and a GI50 [17] greater than 100 µM. It also gave a TGI [17] greater than 100 µM, a GI50 [18] greater than 100 µM and a TGI [18] greater than 100 µM. For the same compound, the GI50 [19] was greater than 100 µM, the TGI [19] was greater than 100 µM and the GI50 [20] was greater than 100 µM. The TGI [20] was greater than 100 µM, the GI50 [21] was greater than 100 µM and the TGI [21] was greater than 100 µM. The GI50 [23] was greater than 100 µM, the TGI [23] was greater than 100 µM and the GI50 [57] was greater than 100 µM. It also gave a TGI [57] greater than 100 µM, a GI50 [25] greater than 100 µM and a TGI [25] greater than 100 µM. The GI50 [26] was greater than 100 µM, the TGI [26] was greater than 100 µM and the GI50 [27] was greater than 100 µM. It also gave a TGI [27] greater than 100 µM, a GI50 [28] greater than 100 µM and a TGI [28] greater than 100 µM. For the same compound, the GI50 [29] was greater than 100 µM, the TGI [29] was greater than 100 µM and the GI50 [30] was greater than 100 µM. It also gave a TGI [30] greater than 100 µM, a GI50 [31] greater than 100 µM and a TGI [31] greater than 100 µM. For the same compound, the GI50 [32] was greater than 100 µM, the TGI [32] was greater than 100 µM and the GI50 [33] was greater than 100 µM. For the same compound, the TGI [33] was greater than 100 µM, the GI50 [34] was greater than 100 µM and the TGI [34] was greater than 100 µM. For the same compound, the GI50 [35] was greater than 100 µM, the TGI [35] was greater than 100 µM and the GI50 [36] was greater than 100 µM. It also gave a TGI [36] greater than 100 µM, a GI50 [37] greater than 100 µM and a TGI [37] greater than 100 µM. For the same compound, the GI50 [38] was greater than 100 µM, the TGI [38] was greater than 100 µM and the GI50 [39] was greater than 100 µM. It also gave a TGI [39] greater than 100 µM, a GI50 [40] greater than 100 µM and a TGI [40] greater than 100 µM. The GI50 [41] was greater than 100 µM, the TGI [41] was greater than 100 µM and the GI50 [42] was greater than 100 µM. For the same compound, the TGI [42] was greater than 100 µM, the GI50 [44] was greater than 100 µM and the TGI [44] was greater than 100 µM. It also gave a GI50 [45] greater than 100 µM, a TGI [45] greater than 100 µM and a GI50 [46] greater than 100 µM. For the same compound, the TGI [46] was greater than 100 µM, the GI50 [47] was greater than 100 µM and the TGI [47] was greater than 100 µM. For the same compound, the GI50 [48] was greater than 100 µM, the TGI [48] was greater than 100 µM and the GI50 [50] was greater than 100 µM. For the same compound, the TGI [50] was greater than 100 µM, the GI50 [51] was greater than 100 µM and the TGI [51] was greater than 100 µM. For the same compound, the GI50 [52] was greater than 100 µM, the TGI [52] was greater than 100 µM and the GI50 [53] was greater than 100 µM. The TGI [53] was greater than 100 µM, the GI50 [54] was greater than 100 µM and the TGI [54] was greater than 100 µM. It also gave a GI50 [55] greater than 100 µM, a TGI [55] greater than 100 µM and a GI50 [56] greater than 100 µM. For the same compound, the TGI [56] was greater than 100 µM, the GI50 [58] was greater than 100 µM and the TGI [58] was greater than 100 µM.
